The term IC50 denotes the concentration that gives 50% inhibition.

Assay [1] addresses T1, NAMPT (Homo sapiens, UniProt P43490). In words: TR-FRET Binding Assay of NAMPT with PRPP. The note with it: 2 nM NAMPT, 2 nM probe, 200 µM PRPP and 2.5 mM ATP, equilibrated 16 hours. The method in brief: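 Substrates present: PRPP at 200 µM and ATP at 2.5 mM, final, alongside 2 nM enzyme, 2 nM tracer and 1 nM terbium anti-His donor in 2% DMSO. A 16-hour equilibration preceded the time-resolved FRET read, allowing compounds to be enzymatically modified.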
A general note: Time-resolved FRET reads energy transfer from a long-lived donor to a nearby acceptor.

The target of assay [2] is T1, NAMPT. Put plainly: Time-Resolved Fluorescence Resonance Energy Transfer (TR-FRET) Binding Assay of NAMPT. The note with it: 6.8 nM NAMPT, 200 nM probe, equilibrated 3 hours, no substrates. In outline: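 IC50s come from four-parameter logistic fits of control-normalized Em520/Em495 TR-FRET ratios (Ex 337 nm) against compound concentration. Before reading, enzyme, probe, antibody and compound equilibrated for 3 h at room temperature.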

The subject of assay [3] is PC3 cells. Put plainly: NAMPT Cell Proliferation Assay (Cell Titer Glo). The class given is cell-based. The note with it: Homo sapiens, PC-3, 120 h, incubated 5 days, cell viability. In outline: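 Viability measured by Cell Titer Glo luminescence after 5-day exposure of attached PC3 cells to compound, dosed as 10-fold serial dilutions ([…]) in RPMI/10% FBS at 37 °C and 5% CO2. Percent inhibition fitted to sigmoidal dose-response curves for IC50.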

Structures are written as SMILES.

T1 sequence (P43490 whole entry): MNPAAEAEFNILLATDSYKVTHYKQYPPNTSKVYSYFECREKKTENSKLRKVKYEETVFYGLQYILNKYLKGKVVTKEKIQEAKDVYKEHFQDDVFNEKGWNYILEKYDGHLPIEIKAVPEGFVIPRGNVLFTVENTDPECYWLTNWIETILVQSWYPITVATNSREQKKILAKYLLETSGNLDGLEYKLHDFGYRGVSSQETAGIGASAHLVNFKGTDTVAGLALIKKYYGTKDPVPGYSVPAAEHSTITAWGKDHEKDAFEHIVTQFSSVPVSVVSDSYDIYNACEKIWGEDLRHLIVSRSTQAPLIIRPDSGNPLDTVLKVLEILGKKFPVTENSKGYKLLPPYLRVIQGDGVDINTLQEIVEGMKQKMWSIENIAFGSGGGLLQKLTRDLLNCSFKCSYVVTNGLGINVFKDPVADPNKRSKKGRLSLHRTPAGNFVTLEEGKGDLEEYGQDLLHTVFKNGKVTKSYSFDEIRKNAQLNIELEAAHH

With `CC(C)C(=O)N1CC(c2ccc(NC(=O)N3CC(c4cccnc4)C3)cc2)C1` [Example 101, N-{4-[1-(2-methylpropanoyl)azetidin-3-yl]phenyl}-3-(pyridin-3-yl)azetidine-1-carboxamide], the IC50 in assay [1] amounted to 0.629 nM; in assay [2], 143 nM; in assay [3], 68.1 nM.

With `CC1CC1C(=O)N1CCC(c2ccc(NC(=O)N3CC(c4cccnc4)C3)cc2)C1` (stereo not drawn) [Example 262, N-(4-{1-[(2-methylcyclopropyl)carbonyl]pyrrolidin-3-yl}phenyl)-3-(pyridin-3-yl)azetidine-1-carboxamide], the concentration for half-maximal inhibition (IC50) in assay [1] was 0.252 nM; in assay [2] it was 60.4 nM; in assay [3], 51.6 nM.

In the case of `CCOCCC(=O)N1CCC(c2ccc(NC(=O)N3CC(c4cccnc4)C3)cc2)CC1` [Example 168, N-{4-[1-(3-ethoxypropanoyl)piperidin-4-yl]phenyl}-3-(pyridin-3-yl)azetidine-1-carboxamide], the results for the IC50 in assay [1], in assay [2] and in assay [3] were 0.503 nM, 28.9 nM and 45 nM, respectively.

With `CC(C)CC(=O)N1CC(Oc2ccc(NC(=O)N3CC(c4cccnc4)C3)cc2)C1` [Example 132, N-(4-{[1-(3-methylbutanoyl)azetidin-3-yl]oxy}phenyl)-3-(pyridin-3-yl)azetidine-1-carboxamide], the 50% inhibitory concentration (IC50) turned out to be 0.634 nM in assay [1], 19.1 nM in assay [2] and 7.77 nM in assay [3].

On to `O=C(CC1CCOCC1)N1CC[C@H](Oc2ccc(NC(=O)N3CC(c4cccnc4)C3)cc2)C1` [Example 88, 3-(pyridin-3-yl)-N-(4-{[(3S)-1-(tetrahydro-2H-pyran-4-ylacetyl)pyrrolidin-3-yl]oxy}phenyl)azetidine-1-carboxamide], for which the concentration for half-maximal inhibition (IC50) in assay [1] was found to be 0.58 nM; in assay [2] it was 269 nM; in assay [3] it was 109 nM.

On to `Cc1ccsc1C(=O)N1CCC(c2ccc(NC(=O)N3CC(c4cccnc4)C3)cc2)C1` (stereo not drawn) [Example 270, N-(4-{1-[(3-methylthiophen-2-yl)carbonyl]pyrrolidin-3-yl}phenyl)-3-(pyridin-3-yl)azetidine-1-carboxamide], for which the IC50 is 0.196 nM in assay [1], 8.17 nM in assay [2] and 19.5 nM in assay [3].

`O=C(Nc1ccc(C2CN(C(=O)c3ccoc3)C2)cc1)N1CC(c2cccnc2)C1` [Example 216, N-{4-[1-(furan-3-ylcarbonyl)azetidin-3-yl]phenyl}-3-(pyridin-3-yl)azetidine-1-carboxamide]: the values for the 50% inhibitory concentration (IC50) in assay [1], in assay [2] and in assay [3] were 0.256 nM, 18.4 nM and 20.5 nM, respectively.

As to `Cn1cccc1C(=O)N1CC[C@@H](Oc2ccc(NC(=O)N3CC(c4cccnc4)C3)cc2)C1` [Example 325, N-[4-({(3R)-1-[(1-methyl-1H-pyrrol-2-yl)carbonyl]pyrrolidin-3-yl}oxy)phenyl]-3-(pyridin-3-yl)azetidine-1-carboxamide], the IC50 in assay [1] is 0.362 nM; in assay [2], 18.8 nM; in assay [3] it was 11.3 nM.

Consider `O=C(CN1CCCC1)N1CC(Oc2ccc(NC(=O)N3CC(c4cccnc4)C3)cc2)C1` [Example 155, 3-(pyridin-3-yl)-N-(4-{[1-(pyrrolidin-1-ylacetyl)azetidin-3-yl]oxy}phenyl)azetidine-1-carboxamide], for which the IC50 is 0.425 nM in assay [1], 399 nM in assay [2] and 130 nM in assay [3].

Take `CCC(CC)CN1CCC(c2ccc(NC(=O)N3CC(c4cccnc4)C3)cc2)CC1` [Example 237, N-{4-[1-(2-ethylbutyl)piperidin-4-yl]phenyl}-3-(pyridin-3-yl)azetidine-1-carboxamide]: the IC50 in assay [1] was found to be 0.257 nM; in assay [2] it was 581 nM; in assay [3] it was 346 nM.

For the compound `O=C(CC1CCCC1)N1CCC(c2ccc(NC(=O)N3CC(c4cccnc4)C3)cc2)C1` (stereo not drawn) [Example 261, N-{4-[1-(cyclopentylacetyl)pyrrolidin-3-yl]phenyl}-3-(pyridin-3-yl)azetidine-1-carboxamide], the IC50 was determined as 0.194 nM in assay [1], 33.5 nM in assay [2] and 71.3 nM in assay [3].

For the compound `Cc1ccc(C(=O)N2CCC(c3ccc(NC(=O)N4CC(c5cccnc5)C4)cc3)CC2)s1` [Example 189, N-(4-{1-[(5-methylthiophen-2-yl)carbonyl]piperidin-4-yl}phenyl)-3-(pyridin-3-yl)azetidine-1-carboxamide], the half-inhibitory concentration (IC50) in assay [1] stood at 0.21 nM; in assay [2], 22.6 nM; in assay [3] it was 21.7 nM.

Regarding `O=C(CC1CCCCC1)N1CC(c2ccc(NC(=O)N3CC(c4cccnc4)C3)cc2)C1` [Example 212, N-{4-[1-(cyclohexylacetyl)azetidin-3-yl]phenyl}-3-(pyridin-3-yl)azetidine-1-carboxamide], the figures for the IC50 in assay [1], in assay [2] and in assay [3] were 0.464 nM, 40.9 nM and 20.6 nM, respectively.

Regarding `CC(C)CCC(=O)N1CC(Oc2ccc(NC(=O)N3CC(c4cccnc4)C3)cc2)C1` [Example 124, N-(4-{[1-(4-methylpentanoyl)azetidin-3-yl]oxy}phenyl)-3-(pyridin-3-yl)azetidine-1-carboxamide], the figures for the half-inhibitory concentration (IC50) in assay [1], in assay [2] and in assay [3] were 0.375 nM, 14.9 nM and 7.75 nM, respectively.

As for `O=C(Nc1ccc(C2CCN(C(=O)c3ccsc3)C2)cc1)N1CC(c2cccnc2)C1` (stereo not drawn) [Example 268, 3-(pyridin-3-yl)-N-{4-[1-(thiophen-3-ylcarbonyl)pyrrolidin-3-yl]phenyl}azetidine-1-carboxamide], the IC50 in assay [1] turned out to be 0.225 nM; in assay [2] it was 36.5 nM; in assay [3] it was 22.8 nM.

In the case of `CCCC(=O)N1CC(Oc2ccc(NC(=O)N3CC(c4cccnc4)C3)cc2)C1` [Example 129, N-{4-[(1-butanoylazetidin-3-yl)oxy]phenyl}-3-(pyridin-3-yl)azetidine-1-carboxamide], the values for the IC50 in assay [1], in assay [2] and in assay [3] were 0.401 nM, 40 nM and 11.3 nM, respectively.

For `CCC(C)(C)C(=O)N1CC[C@@H](Oc2ccc(NC(=O)N3CC(c4cccnc4)C3)cc2)C1` [Example 330, N-(4-{[(3R)-1-(2,2-dimethylbutanoyl)pyrrolidin-3-yl]oxy}phenyl)-3-(pyridin-3-yl)azetidine-1-carboxamide], the results for the IC50 in assay [1], in assay [2] and in assay [3] were 0.364 nM, 21.9 nM and 12.3 nM, respectively.

On to `O=C(Nc1ccc(C2CCN(C(=O)c3ccoc3)CC2)cc1)N1CC(c2cccnc2)C1` [Example 182, N-{4-[1-(furan-3-ylcarbonyl)piperidin-4-yl]phenyl}-3-(pyridin-3-yl)azetidine-1-carboxamide], for which the half-maximal inhibitory concentration (IC50) came to 0.219 nM in assay [1], 3.68 nM in assay [2] and 6.95 nM in assay [3].

For the compound `O=C(CC1CCCC1)N1CC(Oc2ccc(NC(=O)N3CC(c4cccnc4)C3)cc2)C1` [Example 153, N-(4-{[1-(cyclopentylacetyl)azetidin-3-yl]oxy}phenyl)-3-(pyridin-3-yl)azetidine-1-carboxamide], the IC50 in assay [1] stood at 0.436 nM; in assay [2], 12.4 nM; in assay [3], 8.03 nM.

For the compound `O=C(Nc1ccc(O[C@H]2CCN(C(=O)[C@@H]3CCCO3)C2)cc1)N1CC(c2cccnc2)C1` [Example 90, 3-(pyridin-3-yl)-N-[4-({(3S)-1-[(2S)-tetrahydrofuran-2-ylcarbonyl]pyrrolidin-3-yl}oxy)phenyl]azetidine-1-carboxamide], the half-inhibitory concentration (IC50) in assay [1] was determined as 0.196 nM; in assay [2], 404 nM; in assay [3], 686 nM.

Values taken from US9296723B2, “NAMPT inhibitors” (AbbVie Inc., priority 2012, dated 2016).
